Data: ChEMBL document CHEMBL3870348, “Discovery of a new isomannide-based peptidomimetic synthetized by Ugi multicomponent reaction as human tissue kallikrein 1 inhibitor” (Bioorg Med Chem Lett, 2017)
The source made the active and inactive calls. No cut-off for these calls is given here.

Columns and labels:
Kallikrein-7 [1] = target: T1, Kallikrein-7 (Homo sapiens, UniProt P49862); test: Inhibition of recombinant human KLK7 expressed in baculovirus/insect cell expression system using Abz-KLYSSKQ-EDDnp peptide as substrate preincubated for 5 mins followed by substrate addition by FRET assay
Target sequence in this assay (P49862 whole entry): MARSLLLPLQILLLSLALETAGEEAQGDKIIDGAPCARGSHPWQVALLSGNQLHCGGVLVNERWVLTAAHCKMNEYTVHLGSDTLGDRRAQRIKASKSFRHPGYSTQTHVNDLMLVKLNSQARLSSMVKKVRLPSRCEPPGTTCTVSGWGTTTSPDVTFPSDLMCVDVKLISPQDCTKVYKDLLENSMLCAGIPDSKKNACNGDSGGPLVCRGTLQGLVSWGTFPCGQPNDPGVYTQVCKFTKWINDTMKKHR

Kallikrein-1 [2] = target: T2, Kallikrein-1 (Homo sapiens, UniProt P06870); test: Inhibition of recombinant human KLK1 expressed in baculovirus/insect cell expression system using Abz-KLRSSKQ-EDDnp peptide as substrate preincubated for 5 mins followed by substrate addition by FRET assay
Target sequence in this assay (P06870 whole entry): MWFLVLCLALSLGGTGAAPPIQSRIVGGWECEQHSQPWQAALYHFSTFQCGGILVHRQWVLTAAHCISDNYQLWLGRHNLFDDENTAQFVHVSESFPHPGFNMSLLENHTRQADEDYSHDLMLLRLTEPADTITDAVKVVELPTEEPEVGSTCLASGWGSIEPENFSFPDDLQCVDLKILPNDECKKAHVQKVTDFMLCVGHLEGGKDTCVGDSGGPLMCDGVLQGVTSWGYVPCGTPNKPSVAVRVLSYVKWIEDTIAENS

Kallikrein-7 [3] = target: T1, Kallikrein-7; test: Inhibition of recombinant human KLK7 expressed in baculovirus/insect cell expression system at 100 uM using Abz-KLYSSKQ-EDDnp peptide as substrate preincubated for 5 mins followed by substrate addition by FRET assay
Target sequence in this assay (P49862 30-253 limits assumed): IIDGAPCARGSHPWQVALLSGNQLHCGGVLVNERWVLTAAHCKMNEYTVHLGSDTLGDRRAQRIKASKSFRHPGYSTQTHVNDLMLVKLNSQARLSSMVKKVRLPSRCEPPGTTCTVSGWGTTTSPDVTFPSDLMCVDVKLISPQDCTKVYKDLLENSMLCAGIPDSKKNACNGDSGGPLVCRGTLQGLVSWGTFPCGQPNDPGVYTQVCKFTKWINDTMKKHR

Kallikrein-1 [4] = target: T2, Kallikrein-1; test: Inhibition of recombinant human KLK1 expressed in baculovirus/insect cell expression system at 100 uM using Abz-KLRSSKQ-EDDnp peptide as substrate preincubated for 5 mins followed by substrate addition by FRET assay
Target sequence in this assay (P06870 25-262 limits assumed): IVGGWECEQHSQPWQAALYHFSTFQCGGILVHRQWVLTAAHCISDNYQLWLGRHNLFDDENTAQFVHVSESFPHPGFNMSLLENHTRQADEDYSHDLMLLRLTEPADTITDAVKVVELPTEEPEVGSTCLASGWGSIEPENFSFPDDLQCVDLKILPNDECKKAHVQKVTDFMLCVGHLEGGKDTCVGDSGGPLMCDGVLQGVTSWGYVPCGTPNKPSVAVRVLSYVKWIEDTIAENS

Kallikrein-1 [5] = target: T2, Kallikrein-1; test: Competitive inhibition of recombinant human KLK1 expressed in baculovirus/insect cell expression system using Abz-KLRSSKQ-EDDnp peptide as substrate by Dixon plot analysis
Target sequence in this assay (P06870 whole entry): as the sequence (P06870 whole entry) above

Kallikrein-1 [6] = target: T2, Kallikrein-1; test: Reversible competitive inhibition of recombinant human KLK1 expressed in baculovirus/insect cell expression system using Abz-KLRSSKQ-EDDnp peptide as substrate at 2 to 8 uM by Lineweaver-Burk plot analysis
Target sequence in this assay (P06870 25-262 limits assumed): as the sequence (P06870 25-262 limits assumed) above

| SMILES | IC50 (Kallikrein-7 [1]) [µM] | IC50 (Kallikrein-1 [2]) [µM] | inhibition (Kallikrein-7 [3]) | inhibition (Kallikrein-1 [4]) | Ki (Kallikrein-1 [5]) [µM] | inhibition (Kallikrein-1 [6]) |
| --- | --- | --- | --- | --- | --- | --- |
| CC(C)(C(=O)NC1CCCCC1)N(C(=O)c1ccccc1)[C@H]1CO[C@H]2[C@@H]1OC[C@H]2OCc1ccccc1 | 572 | 400 | Active | Active |  |  |
| CC(C)(C(=O)NC1CCCCC1)N(C(=O)Cc1ccc(F)cc1)[C@H]1CO[C@H]2[C@@H]1OC[C@H]2OCc1ccccc1 | 185 | 221 | Active | Active |  |  |
| CC(C)(C(=O)NC1CCCCC1)N(C(=O)Cc1ccc(O)cc1)[C@H]1CO[C@H]2[C@@H]1OC[C@@H]2N(C(=O)Cc1ccc(O)cc1)C(C)(C)C(=O)NC1CCCCC1 | 133 | 12.6 | Active | Active |  |  |
| CC(C)(C(=O)NC1CCCCC1)N(C(=O)Cc1ccc(O)cc1)[C@H]1CO[C@H]2[C@@H]1OC[C@H]2OCc1ccccc1 | 249 | 4 | Active | Active | 3.1 | Active |
| COc1ccc(CC(=O)N([C@H]2CO[C@H]3[C@@H]2OC[C@H]3OCc2ccccc2)C(C)(C)C(=O)NC2CCCCC2)cc1 | 272 | 125 | Active | Active |  |  |
